From patent US20170015555A1, “LONG-TERM PRESERVATION AND NOVEL APPLICATION OF CHLOROUS ACID AQUEOUS SOLUTION FORMULATION” (priority 2013, published 2017)

How the values were obtained:
[1] = system: E. coli: Escherichia coli IF03927; assay: Permeability of pathogenic microbes when treatment sheets were laid on vomit; format: cell-based; design: unit not given here; settings: 1000 ppm available chlorine
Description: (§1) 1) Chlorous acid aqueous solution formulation (see Example 1: Table 11) Treatment sheet (material: 100% cotton): (about 27×40 cm) *Impregnated at a ratio of weight of treatment sheet (g): amount of liquid (ml)=1:3 2) Imitation vomit (hereinafter, referred to as vomit) Miso solution: adjusted to pH 2 with hydrochloric acid 3) Test Microbes that were used E. coli: Escherichia coli IF03927 Staphylococcus aureus: Staphylococcus aureus IF0 12732 Thermoduric Microbes (Bacillus cereus): Bacillus cereus NBRC15305 Microbes of the genus Salmonella: Salmonella Enteritidis IF03313 Enterohemorrhagic Escherichia coli 0157: Escherichia coli 0157 Enterohemorrhagic Escherichia coli 0111: Escherichia coli 0111 Enterohemorrhagic Escherichia coli 026: Escherichia coli O26
(§2) Permeability of pathogenic microbes into a treatment sheet when treating vomit was examined to compare effects of preventing secondary contamination. (1) Imitation vomit is spread in an area about the size of an A4 sheet. (2) 30 agent solution-containing treatment sheets were laid thereon and left standing for 10 minutes. (3) Treatment sheets were removed one at a time from the top. After diluting with saline, the sample was spread in a petri dish and cultured.

[2] = system: Staphylococcus aureus IF0 12732; assay: as above; format: cell-based; design: unit not given here; settings: 1000 ppm available chlorine
Description: as §1, §2

[3] = system: Thermoduric Microbes (Bacillus cereus): Bacillus cereus NBRC15305; assay: as above; format: cell-based; design: unit not given here; settings: 1000 ppm available chlorine
Description: as §1, §2

[4] = Deodorizing effect (chemical deodorization, gas detector tube); settings: 400 ppm, spray 20 cc
Description: In order to evaluate tests on deodorizing effects, the present Example examined deodorizing effects by using standards regarding air freshening and deodorization ([II]-2 Method of Testing Deodorizing Efficacy (Chemical Deodorization)) set forth by the Air Fresheners and Deodorizers Conference (http://www.houkou.gr.jp/) as the efficacy testing method, which is adopted by Japan Food Research Laboratories.
Ammonium odor: Ammonium Standard Solution II (Wako Pure Chemical Industries, for testing malodorous substances) Amine odor: methyl mercaptan standard solution (Wako Pure Chemical Industries, for testing malodorous substances) Sulfur odor: hydrogen sulfide (self-made, used hydrogen sulfide that was generated by adding sulfuric acid to zinc sulfide)
Gas detector tube made by GASTEC Corporation Ammonium odor: Detector tube ammonium 3 L made by GASTEC Corporation Amino odor: Detector tube methyl mercaptan 71 made by GASTEC Corporation Sulfur odor: Detector tube hydrogen sulfide 4 LL made by GASTEC Corporation
Tests were conducted in compliance with ([II]-2 Method of Testing Deodorizing Efficacy (Chemical Deodorization)) set forth by the Air Fresheners and Deodorizers Conference.
The tests were carried out by static culture method, using a commercially-available airbag with a spigot having a volume of about 10 L as test containers. The volume of airbags was appropriately changed in accordance with the size of the product.
The bags were filled with odorless air. Malodor concentrations were measured over time at room temperature (about 20° C.). (3 points or higher, detection tube method (FIG. 16), measured by an instrument analysis method or olfactory measurement method. When decrease in the blank was observed, the decrease was suitably corrected. When measuring by olfactory measuring method, the airbag spigot was opened for direct sniffing, or gas was transferred to an odor bag while wearing a mask to perform olfactory measurement in an autonomic respiration form. Measured air was not returned to the source).
Next, for amine odor (methyl mercaptan), the residual concentrations were detected and recorded for control (no specimen), 20 ml (cc) of distilled water, sodium hypochlorite (expressed as Na hypochlorite, 400 ppm), and chlorous acid aqueous solution (expressed as CAAS, 400 ppm) prior to spraying and 0 hour, 3 hours, 6 hours, 9 hours, and 24 hours after spraying. The experiment was conducted twice.

[5] = first experiment (Table 55), 0 h after spraying
[6] = first experiment (Table 55), 3 h after spraying
[7] = first experiment (Table 55), 6 h after spraying
[8] = first experiment (Table 55), 9 h after spraying
[9] = first experiment (Table 55), 24 h after spraying
[10] = first experiment (Table 55), before spraying
[11] = second experiment (Table 56), 0 h after spraying
[12] = second experiment (Table 56), 3 h after spraying
[13] = second experiment (Table 56), 6 h after spraying
[14] = second experiment (Table 56), 9 h after spraying
[15] = second experiment (Table 56), 24 h after spraying
[16] = second experiment (Table 56), before spraying

OCl [Sodium Hypochlorite, sodium hypochlorite]
microbes in treatment sheet laid on imitation vomit ([1]; 1 sheet, Day 0 at 25° C.): <10
microbes in treatment sheet laid on imitation vomit ([1]; 1 sheet, Day 7 at 25° C.): >10^6
microbes in treatment sheet laid on imitation vomit ([1]; 2 sheets, Day 0 at 25° C.): <10
microbes in treatment sheet laid on imitation vomit ([1]; 2 sheets, Day 7 at 25° C.): >10^6
microbes in treatment sheet laid on imitation vomit ([1]; 3 sheets, Day 0 at 25° C.): <10
microbes in treatment sheet laid on imitation vomit ([1]; 3 sheets, Day 7 at 25° C.): >10^6
microbes in treatment sheet laid on imitation vomit ([1]; 4 sheets, Day 0 at 25° C.): <10
microbes in treatment sheet laid on imitation vomit ([1]; 4 sheets, Day 7 at 25° C.): >10^6
microbes in treatment sheet laid on imitation vomit ([1]; 5 sheets, Day 0 at 25° C.): <10
microbes in treatment sheet laid on imitation vomit ([1]; 5 sheets, Day 7 at 25° C.): >10^6
microbes in treatment sheet laid on imitation vomit ([1]; 6 sheets, Day 0 at 25° C.): <10
microbes in treatment sheet laid on imitation vomit ([1]; 6 sheets, Day 7 at 25° C.): >10^6
microbes in treatment sheet laid on imitation vomit ([1]; 8 sheets, Day 0 at 25° C.): <10
microbes in treatment sheet laid on imitation vomit ([1]; 8 sheets, Day 7 at 25° C.): >10^6
microbes in treatment sheet laid on imitation vomit ([1]; 10 sheets, Day 0 at 25° C.): <10
microbes in treatment sheet laid on imitation vomit ([1]; 10 sheets, Day 7 at 25° C.): >10^6
microbes in treatment sheet laid on imitation vomit ([1]; 20 sheets, Day 0 at 25° C.): <10
microbes in treatment sheet laid on imitation vomit ([1]; 20 sheets, Day 7 at 25° C.): >10^6
microbes in treatment sheet laid on imitation vomit ([1]; 30 sheets, Day 0 at 25° C.): <10
microbes in treatment sheet laid on imitation vomit ([1]; 30 sheets, Day 7 at 25° C.): >10^6
microbes in treatment sheet laid on imitation vomit ([2]; 1 sheet, Day 0 at 25° C.): <10
microbes in treatment sheet laid on imitation vomit ([2]; 1 sheet, Day 7 at 25° C.): >10^6
microbes in treatment sheet laid on imitation vomit ([2]; 2 sheets, Day 0 at 25° C.): <10
microbes in treatment sheet laid on imitation vomit ([2]; 2 sheets, Day 7 at 25° C.): >10^6
microbes in treatment sheet laid on imitation vomit ([2]; 3 sheets, Day 0 at 25° C.): <10
microbes in treatment sheet laid on imitation vomit ([2]; 3 sheets, Day 7 at 25° C.): >10^6
microbes in treatment sheet laid on imitation vomit ([2]; 4 sheets, Day 0 at 25° C.): <10
microbes in treatment sheet laid on imitation vomit ([2]; 4 sheets, Day 7 at 25° C.): >10^6
microbes in treatment sheet laid on imitation vomit ([2]; 5 sheets, Day 0 at 25° C.): <10
microbes in treatment sheet laid on imitation vomit ([2]; 5 sheets, Day 7 at 25° C.): >10^6
microbes in treatment sheet laid on imitation vomit ([2]; 6 sheets, Day 0 at 25° C.): <10
microbes in treatment sheet laid on imitation vomit ([2]; 6 sheets, Day 7 at 25° C.): >10^6
microbes in treatment sheet laid on imitation vomit ([2]; 8 sheets, Day 0 at 25° C.): <10
microbes in treatment sheet laid on imitation vomit ([2]; 8 sheets, Day 7 at 25° C.): 1.1 × 10^4
microbes in treatment sheet laid on imitation vomit ([2]; 10 sheets, Day 0 at 25° C.): <10
microbes in treatment sheet laid on imitation vomit ([2]; 10 sheets, Day 7 at 25° C.): 7.1 × 10^2
microbes in treatment sheet laid on imitation vomit ([2]; 20 sheets, Day 0 at 25° C.): <10
microbes in treatment sheet laid on imitation vomit ([2]; 20 sheets, Day 7 at 25° C.): <10
microbes in treatment sheet laid on imitation vomit ([2]; 30 sheets, Day 0 at 25° C.): <10
microbes in treatment sheet laid on imitation vomit ([2]; 30 sheets, Day 7 at 25° C.): <10
microbes in treatment sheet laid on imitation vomit ([3]; 1 sheet, Day 0 at 25° C.): <10
microbes in treatment sheet laid on imitation vomit ([3]; 1 sheet, Day 7 at 25° C.): >10^6
microbes in treatment sheet laid on imitation vomit ([3]; 2 sheets, Day 0 at 25° C.): <10
microbes in treatment sheet laid on imitation vomit ([3]; 2 sheets, Day 7 at 25° C.): >10^6
microbes in treatment sheet laid on imitation vomit ([3]; 3 sheets, Day 0 at 25° C.): <10
microbes in treatment sheet laid on imitation vomit ([3]; 3 sheets, Day 7 at 25° C.): >10^6
microbes in treatment sheet laid on imitation vomit ([3]; 4 sheets, Day 0 at 25° C.): <10
microbes in treatment sheet laid on imitation vomit ([3]; 4 sheets, Day 7 at 25° C.): >10^6
microbes in treatment sheet laid on imitation vomit ([3]; 5 sheets, Day 0 at 25° C.): <10
microbes in treatment sheet laid on imitation vomit ([3]; 5 sheets, Day 7 at 25° C.): >10^6
microbes in treatment sheet laid on imitation vomit ([3]; 6 sheets, Day 0 at 25° C.): <10
microbes in treatment sheet laid on imitation vomit ([3]; 6 sheets, Day 7 at 25° C.): >10^6
microbes in treatment sheet laid on imitation vomit ([3]; 8 sheets, Day 0 at 25° C.): <10
microbes in treatment sheet laid on imitation vomit ([3]; 8 sheets, Day 7 at 25° C.): 1.1 × 10^4
microbes in treatment sheet laid on imitation vomit ([3]; 10 sheets, Day 0 at 25° C.): <10
microbes in treatment sheet laid on imitation vomit ([3]; 10 sheets, Day 7 at 25° C.): 7.1 × 10^2
microbes in treatment sheet laid on imitation vomit ([3]; 20 sheets, Day 0 at 25° C.): <10
microbes in treatment sheet laid on imitation vomit ([3]; 20 sheets, Day 7 at 25° C.): <10
microbes in treatment sheet laid on imitation vomit ([3]; 30 sheets, Day 0 at 25° C.): <10
microbes in treatment sheet laid on imitation vomit ([3]; 30 sheets, Day 7 at 25° C.): <10
residual concentration of methyl mercaptan, after correction (Control = 100) [4, 5]: 22
residual concentration of methyl mercaptan, before correction [4, 5]: 20 ppm
residual concentration of methyl mercaptan, after correction (Control = 100) [4, 6]: 0
residual concentration of methyl mercaptan, before correction [4, 6]: 0 ppm
residual concentration of methyl mercaptan, after correction (Control = 100) [4, 7]: 0
residual concentration of methyl mercaptan, before correction [4, 7]: 0 ppm
residual concentration of methyl mercaptan, after correction (Control = 100) [4, 8]: 14
residual concentration of methyl mercaptan, before correction [4, 8]: 5 ppm
residual concentration of methyl mercaptan, after correction (Control = 100) [4, 9]: 25
residual concentration of methyl mercaptan, before correction [4, 9]: 6 ppm
residual concentration of methyl mercaptan, after correction (Control = 100) [4, 10]: 100
residual concentration of methyl mercaptan, before correction [4, 10]: 90 ppm
residual concentration of methyl mercaptan, after correction (Control = 100) [4, 11]: 11
residual concentration of methyl mercaptan, before correction [4, 11]: 8 ppm
residual concentration of methyl mercaptan, after correction (Control = 100) [4, 12]: 11
residual concentration of methyl mercaptan, before correction [4, 12]: 5 ppm
residual concentration of methyl mercaptan, after correction (Control = 100) [4, 13]: 12
residual concentration of methyl mercaptan, before correction [4, 13]: 5 ppm
residual concentration of methyl mercaptan, after correction (Control = 100) [4, 14]: 24
residual concentration of methyl mercaptan, before correction [4, 14]: 7 ppm
residual concentration of methyl mercaptan, after correction (Control = 100) [4, 15]: 35
residual concentration of methyl mercaptan, before correction [4, 15]: 5 ppm
residual concentration of methyl mercaptan, after correction (Control = 100) [4, 16]: 100
residual concentration of methyl mercaptan, before correction [4, 16]: 70 ppm
